These results are taken from US20260166121A1, “COMPOSITIONS AND METHODS FOR THE TREATMENT OF HEMORRHAGIC SHOCK” (Children's Hospital Medical Center, priority 2022, published 2026).

Ends that are not written are not given here.

The subject of one test is mice with sepsis. Conditions: cited from earlier work.
The subject of test [1] is AMPKα1 and AMPKα2 subunits. To be noted: thoracic aortas; mice with sepsis; cited from earlier work.
In test [2] the test system is AMPKα1 wild-type (WT) and knockout (KO) mice. Description: Survival analysis up to 7 days after hemorrhagic shock. In kind it is in vivo. Conditions: 100 μg/kg intra-arterially at resuscitation, subcutaneously at 24 h and 48 h, compared to vehicle treatment. Here is the method:
Preparation of PEGylated humanin-G and survival analysis. In separate groups of mice survival studies were conducted. For these studies, we generated a longer-acting humanin-G by covalent conjugation of polyethylene glycol (PEG). Briefly, humanin-G was conjugated (1:1 molar ratio) to generate a non-cleavable PEGylated humanin-G. Humanin-G was dissolved in phosphate-buffered saline, pH 7.4, with 5 mM EDTA and mixed at room temperature with an equal volume of DMSO containing PEG-maleimide and left overnight (26). The product, PEGylated humanin-G (PEG10 kDa) was purified by size-exclusion chromatography with a 50 mM ammonium acetate buffer. Mice were subjected to hemorrhagic shock as described above. Mice received PEGylated humanin-G (100 μg/kg, intra-arterially) as a single dose at 90 minutes after blood removal at the time of resuscitation. Three hours after resuscitation, the femoral artery was occluded, and the skin incision was closed in layers. Mice were then allowed to awaken from anesthesia. Mice then received a second and a third dose of PEGylated humanin-G (100 μg/kg, subcutaneously) at 24 hours and 48 hours thereafter. Mice also received further fluid resuscitation (0.5 mL of Lactated Ringer's solution subcutaneously) at 6 hours and 24 hours following hemorrhagic shock. […] Mice were then monitored for survival for 7 days. […]

Turning to “colivelin: synthetic analogue of humanin; SALLRSIPAPAGASRLLLLTGEIDLP (SEQ ID NO: 8)”, the “organ injury in experimental septic shock” value in the test with mice with sepsis (mice, Urban C, et al. 2022) is recorded as “protective effects”. For the same substance, in the test with mice with sepsis (thoracic aortas), the “endothelial damage in mice with sepsis” value is “ameliorating”. Moreover, the “activation of AMPKα1 and AMPKα2 subunits” value in test [1] is “activates”.

Regarding “PEGylated humanin-G: non-cleavable PEGylated humanin-G, humanin-G conjugated 1:1 molar ratio with PEG-maleimide (PEG10 kDa) (MAPRGFSCLLLLTGEIDLPVKRRA; not fully specified (residue 8); also: PEG 10 kDa maleimide conjugate, attachment site not given here; UniProt Q8IVG9 1-24, looked up, variant S14G)”, in test [2], the survival entry is given as “significantly ameliorated”.
